# Key:
# [1] = system: myoballs expressing glutamate receptors (rGluR2); experiment: Whole-cell recording of spontaneous synaptic currents from myoballs expressing rGluR2 at neuronal growth cones; format: cell-based, Xenopus; conditions: myoballs expressing rGluR2 in contact with growth cones
# [2] = system: Ca^2+ spike activity of cultured embryonic spinal neurons; experiment: Suppression of spike activity in dissociated neuron cultures; format: cell-based, Xenopus; conditions: 2 mM Ca^2+ culture medium
Structure (SMILES),"spontaneous synaptic currents (SSCs), glutamatergic [1]",spike activity in vitro [2]
N#Cc1cc2c(cc1[N+](=O)[O-])=NC(=O)C(=O)N=2 [CNQX],blocked,
"CC(=O)OCOC(=O)CN(CC(=O)OCOC(C)=O)c1ccccc1OCCOc1ccccc1N(CC(=O)OCOC(C)=O)CC(=O)OCOC(C)=O [BAPTA-AM, bis-(o-aminophenoxy)ethane-N,N,N,N-tetraacetic acid acetoxymethyl ester]",,suppression of spike activity

# — patent publication US20080070267A1, “Modulation Of Neurotransmitter Activity In Neurons” (The Regents of the University of California, priority 2004, published 2008)
